Test results as given in patent publication US20080119492A1, “Compositions and methods for treating cancer and other diseases characterized by abnormal cell proliferation” (priority 2005, published 2008).

Key:
[1] = test system: model guanine quadruplexes inspired from human telomeres; test: Affinity for guanine quadruplexes; assay type: binding; conditions: 1:2 mixture of mono- and di-cation species
Text: U-shaped molecules holding two potentially intercalating units 7 Å apart have been designed to have a moderate affinity for duplex DNA on the basis of the nearest neighbor exclusion principle but may display strong binding affinity for other architectures such as guanine quadruplexes.

[2] = test system: telomere and telomerase (hTERT) in GBM cell lines SF 763 and SF 767; test: Effects on telomere and telomerase (telomere length, hTERT expression by real-time RT-PCR); assay type: cell-based, human; conditions: 1 μM ThAcr2, 7 and 14 days
Method: (§1) The effects of 1 μM ThAcr2 on telomere and telomerase after 7 and 14 days of treatment were evaluated.

glioblastoma cells = test: Administration of compositions comprising ThAcr2 to glioblastoma cells; assay type: cell-based
SF 763 cells [3] = test: Long-term (50 days) treatment with ThAcr2; assay type: cell-based, human; conditions: from day 30
Method: (§2) To further investigate the tumor-growth inhibition effect of ThAcr2 as a single agent, the GBM cells were exposed to 1 μM ThAcr2 for 50 days.

SF 767 cells [4] = test: Long-term (50 days) treatment with ThAcr2; assay type: cell-based, human; conditions: 1 μM ThAcr2 for 50 days, from day 30
Method: as §2

[5] = test system: GBM cell lines SF 763 and SF 767; test: Short-term (3 days) cell viability; assay type: cell-based, human; conditions: 0.5, 1 and 2 μM
GBM cells = test: Flow cytometry of cell cycle distribution and apoptosis (annexin-propidium iodide); assay type: cell-based, human; conditions: 7 days
Method: Using flow cytometry, cell cycle distribution and apoptosis in cells treated for 7 days with 0.5-2 μM ThAcr2 were examined. […] The percentage of cells in the G2/M phase increased from 10% to 20%. The annexin-propidium iodide (apoptotic) fraction was essentially identical (9-11%) in control and treated cells at lower ThAcr2 concentrations ([…]) but increased to 34% in cells treated with 2 μM ThAcr2.

SF 763 cells [6] = test: Clonogenic survival, ThAcr2 combined with X-rays; assay type: cell-based, human; conditions: 1 μM ThAcr2 for 7 days, replated, 3 Gy X-rays, corrected for ThAcr2 alone
Method: (§3) To explore the effect of ThAcr2 in combination with ionizing radiation on GBM cells, clonogenic survival of SF 763 and SF 767 cells was analyzed. Although both cell lines were radio-resistant, the surviving fraction after 2 Gy was greater in SF 763 (80%) than in SF 767 cells (56%), indicating stronger resistance of SF 763 cells to radiation.
(§4) For combination experiments, non-toxic sub-apoptotic ThAcr2 concentrations of 0.5 and 1 μM were utilized. […] SF 763 cells were treated with […] ThAcr2 for 7 days, then replated and irradiated with a 3 Gy-dose of X-rays. SF 767 cells were treated with 0.5 μM ThAcr2 for 14 days, then replated and irradiated with a 2-Gy dose. […] The combination of ThAcr2 with radiation was additive when the ThAcr2 treatment started after irradiation.

SF 767 cells [7] = test: Clonogenic survival, ThAcr2 combined with X-rays; assay type: cell-based, human; conditions: 0.5 μM ThAcr2 for 14 days, replated, 2-Gy X-rays, corrected for ThAcr2 alone
Method: as §3, §4

SF 763 cells [8] = test: Growth of GBM cells in continuous 14-day culture with ThAcr2; assay type: cell-based, human; conditions: 0.5, 1 and 2 μM ThAcr2, continuous 14 days, more pronounced effect on SF 763
Method: (§5) GBM cells were maintained in culture for 14 days in the presence of 0.5, 1 and 2 μM ThAcr2.

SF 767 cells [9] = test: as above; assay type: cell-based, human; conditions: 0.5, 1 and 2 μM ThAcr2, continuous 14 days
Method: as §5

SF 763 cell = test: Cytogenetic analysis of telomere fusions; assay type: cell-based, human
Method: The fusion frequency was 0.3 in untreated cells and 1.6 in ThAcr2-treated cells.
as §1

GBM tumor cells = test: Clonogenic survival, ThAcr2 combined with radiation, schedule of combination; assay type: cell-based, human
Method: as §3, §4

## 4,6-bis-(6-(10-N-methylacrid-9-ylinium)pyridin-2-yl)-pyrimidine bistriflate [ThAcr2]
[1]
  affinity for model guanine quadruplexes: strong affinity
[2]
  telomere length: did not reduce telomere length
Glioblastoma cells
  glioblastoma cells after administration: reduction of glioblastoma cells
SF 763 cells [3]; 1 μM ThAcr2 for 50 days
  rate of cell proliferation after long-term treatment: increase in the rate of cell proliferation
SF 763 cells [3]; 1 μM ThAcr2 long-term
  overexpression of telomerase: up to 7 fold
SF 767 cells [4]
  rate of cell proliferation after long-term treatment: increase in the rate of cell proliferation
[5]
  short-term cell viability: non-toxic
GBM cells; 2 μM ThAcr2
  annexin-propidium iodide (apoptotic) fraction: 34%
GBM cells; 0.5-2 μM ThAcr2, untreated 10%
  percentage of cells in the G2/M phase: 20%
GBM cells; lower ThAcr2 concentrations (0.5 and 1 μM), identical in control
  annexin-propidium iodide (apoptotic) fraction: 9-11%
SF 763 cells [6]
  reduction of surviving fraction of tumor cells: 2.5 fold
SF 767 cells [7]
  reduction of surviving fraction of tumor cells: 2.3 fold
SF 763 cells [8]
  tumor cell growth: inhibited tumor cell growth
SF 767 cells [9]
  tumor cell growth: inhibited tumor cell growth
SF 763 cell; 1 μM ThAcr2, day 7
  telomere fusions (cytogenetic analysis): multiple telomere fusions
SF 763 cell; SF 763 metaphase, FIG. 3, untreated cells 0.3
  telomere fusion frequency: 1.6
GBM tumor cells; FIG. 4, P<0.001
  clonogenic survival with combination therapy versus radiation alone: markedly decreased
GBM tumor cells; ThAcr2 treatment started after irradiation
  combination of ThAcr2 with radiation: additive
GBM tumor cells; cells continuously treated before and after irradiation
  combination of ThAcr2 with radiation: supra-additive or had a synergistic effect
